Assay [1] has as its target p38 MAPKα isoform (MAPK14) (Homo sapiens (Human), UniProt Q16539). Briefly: p38 MAPKα enzyme inhibition (FRET, Z-LYTE, Method 2). In kind it is biochemical. The protocol:
(§1) The enzyme inhibitory activities of compounds disclosed herein are determined by FRET using synthetic peptides labelled with both donor and acceptor fluorophores (Z-LYTE, Invitrogen Ltd., Paisley, UK).
The following two assay variants can be used for determination of p38 MAPKα inhibition.
The inhibitory activities of test compounds against the p38 MAPKα isoform (MAPK14: Invitrogen), are evaluated indirectly by determining the level of activation/phosphorylation of the down-stream molecule, MAPKAP-K2. The p38 MAPKα protein (80 ng/mL, 2.5 μL) is mixed with the test compound (2.5 μL of either 4 μg/mL, 0.4 μg/mL, 0.04 μg/mL or 0.004 μg/mL) for 2 hr at RT. […] The mixture is incubated for 1 hr at RT. Development reagent (protease, 5 μL) is added for 1 hr prior to detection in a fluorescence microplate reader (Varioskan® Flash, ThermoFisher Scientific).
This method follows the same steps as Method 1 above, but utilises a higher concentration of the p38 MAPKα protein (2.5 μL of 200 ng/mL protein instead of 2.5 μL of 80 ng/mL protein) for mixing with the test compound.
(§2) In all cases, the site-specific protease cleaves non-phosphorylated peptide only and eliminates the FRET signal. Phosphorylation levels of each reaction are calculated using the ratio of coumarin emission (donor) over fluorescein emission (acceptor), for which high ratios indicate high phosphorylation and low ratios indicate low phosphorylation levels. The percentage inhibition of each reaction is calculated relative to non-inhibited control and the 50% inhibitory concentration (IC50 value) is then calculated from the concentration-response curve.

Assay [2] deals with c-Src (Homo sapiens (Human), UniProt P12931). Briefly: c-Src enzyme inhibition (FRET, Z-LYTE). The format is biochemical. The protocol: as §1
Chain of c-Src (P12931 whole entry, looked up): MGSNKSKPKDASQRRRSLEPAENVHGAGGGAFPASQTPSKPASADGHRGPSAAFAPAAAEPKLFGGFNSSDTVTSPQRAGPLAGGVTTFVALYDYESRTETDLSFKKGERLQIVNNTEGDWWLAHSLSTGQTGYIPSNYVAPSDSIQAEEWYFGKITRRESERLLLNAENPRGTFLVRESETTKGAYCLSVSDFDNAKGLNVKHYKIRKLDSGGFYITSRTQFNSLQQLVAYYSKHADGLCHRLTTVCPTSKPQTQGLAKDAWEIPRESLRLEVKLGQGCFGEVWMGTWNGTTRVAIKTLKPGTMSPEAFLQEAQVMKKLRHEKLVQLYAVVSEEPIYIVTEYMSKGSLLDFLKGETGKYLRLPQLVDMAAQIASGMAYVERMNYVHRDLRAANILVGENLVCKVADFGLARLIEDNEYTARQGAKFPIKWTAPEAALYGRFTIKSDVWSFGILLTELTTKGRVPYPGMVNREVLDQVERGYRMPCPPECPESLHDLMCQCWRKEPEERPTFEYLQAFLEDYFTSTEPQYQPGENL
(§3) The inhibitory activities of compounds of the invention against c-Src and Syk enzymes (Invitrogen), are evaluated in a similar fashion to that described hereinabove. The relevant enzyme (3000 ng/mL or 2000 ng/mL respectively, 2.5 μL) is incubated with the test compound (either 4 μg/mL, 0.4 μg/mL, 0.04 μg/mL, or 0.004 μg/mL, 2.5 μL each) for 2 hr at RT. The FRET peptides (8 μM, 2.5 μL), and appropriate ATP solutions (2.5 μL, 800 μM for c-Src, and 60 μM ATP for Syk) are then added to the enzymes/compound mixtures and incubated for 1 hr. Development reagent (protease, 5 μL) is added for 1 hr prior to detection in a fluorescence microplate reader (Varioskan® Flash, ThermoFisher Scientific).
as §2

In assay [3] the target is Syk (Homo sapiens (Human), UniProt P43405). Briefly: Syk enzyme inhibition (FRET, Z-LYTE). The format is biochemical. The protocol:
as §1, §3, §2

Assay [4] deals with GSK 3α (Homo sapiens (Human), UniProt P49840). Briefly: GSK 3α enzyme inhibition (FRET, Z-LYTE, Method 2). The format is biochemical. The settings on record: read-out: IC50 Values for Enzyme Inhibition, GSK3α. The procedure, abridged:
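Phosphorylation of a dual-labelled synthetic peptide by human GSK3α is read as a coumarin/fluorescein ratio after protease development. Compound stocks run 4 to 0.004 μg/mL, and ATP stock is 40 μM.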

The test system of assay [5] is PBMCs. Nature of the assay: LPS-induced IL-8 release in PBMC cells (assay b). The settings on record: LPS-stimulated PBMCs, read-out: IC50 Values for Inhibition of Cytokine Release, PBMCs IL-8. In kind it is cell-based, human. The procedure, abridged:
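Cytokines (TNFα, IL-8) in supernatants were quantified by sandwich ELISA after a 24 h challenge with 1 ng/mL E. coli LPS at 37° C, 5% CO2. Healthy-donor PBMCs had been exposed to compound for 2 h beforehand. IC50 values were fitted from the concentration-response curves.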

In assay [6] the test system is d-U937 cells. Briefly: Accumulation of β catenin in d-U937 cells (assay m). The settings on record: percentage relative to Reference Compound at 1 μg/mL. The format is cell-based, human. The protocol: U937 cells, a human monocytic cell line, are differentiated into macrophage-type cells by incubation with PMA; (100 ng/mL) for between 48 to 72 hr. The cells are then incubated with either final concentrations of test compound or vehicle for 18 hr. The induction of β-catenin by the test compounds is stopped by replacing the media with 4% formaldehyde solution. Endogenous peroxide activity is neutralised by incubating with quenching buffer (100 μL, 0.1% sodium azide, 1% H2O2 in PBS with 0.05% Tween-20) for 20 min. The cells are washed with washing buffer (200 μL; PBS containing 0.05% Tween-20) and incubated with blocking solution (200 μL; 5% milk in PBS) for 1 hr, re-washed with washing buffer (200 μL) and then incubated overnight with anti-β-catenin antibody solution (50 μL) in 1% BSA/PBS (BD, Oxford, UK).
After washing with washing buffer (3×200 μL; PBS containing 0.05% Tween-20), cells are incubated with an HRP-conjugated secondary antibody solution (100 μL) in 1% BSA/PBS (Dako, Cambridge, UK) and the resultant signal is determined colourimetrically (OD: 450 nm with a reference wavelength of 655 nm) using TMB substrate (50 μL; R&D Systems, Abingdon, UK). This reaction is stopped by addition of 1N H2SO4 solution (50 μL). Cells are then washed with washing buffer and 2% crystal violet solution (50 μL) is applied for 30 min. After washing with washing buffer (3×200 μL), 1% SDS (100 μL) is added to each well and the plates are shaken lightly for 1 hr prior to measuring the absorbance at 595 nm (Varioskan® Flash, Thermo-Fisher Scientific).
The measured OD450-655 readings are corrected for cell number by dividing the OD450-655 by the OD595 readings.

Read-outs that look alike come from different tables or passages of the source.

Chain of p38 MAPKα isoform (MAPK14) (Q16539 whole entry, canonical isoform): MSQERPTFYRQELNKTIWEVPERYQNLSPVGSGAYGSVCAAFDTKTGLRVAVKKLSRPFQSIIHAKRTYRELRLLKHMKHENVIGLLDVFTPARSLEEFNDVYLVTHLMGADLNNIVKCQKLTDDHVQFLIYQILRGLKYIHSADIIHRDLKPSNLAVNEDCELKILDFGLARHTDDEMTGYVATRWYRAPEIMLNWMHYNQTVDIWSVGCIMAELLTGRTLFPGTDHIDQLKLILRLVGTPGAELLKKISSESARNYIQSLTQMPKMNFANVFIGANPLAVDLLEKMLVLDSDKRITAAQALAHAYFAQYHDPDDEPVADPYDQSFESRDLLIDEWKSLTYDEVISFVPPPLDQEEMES
Chain of GSK 3α (P49840 whole entry): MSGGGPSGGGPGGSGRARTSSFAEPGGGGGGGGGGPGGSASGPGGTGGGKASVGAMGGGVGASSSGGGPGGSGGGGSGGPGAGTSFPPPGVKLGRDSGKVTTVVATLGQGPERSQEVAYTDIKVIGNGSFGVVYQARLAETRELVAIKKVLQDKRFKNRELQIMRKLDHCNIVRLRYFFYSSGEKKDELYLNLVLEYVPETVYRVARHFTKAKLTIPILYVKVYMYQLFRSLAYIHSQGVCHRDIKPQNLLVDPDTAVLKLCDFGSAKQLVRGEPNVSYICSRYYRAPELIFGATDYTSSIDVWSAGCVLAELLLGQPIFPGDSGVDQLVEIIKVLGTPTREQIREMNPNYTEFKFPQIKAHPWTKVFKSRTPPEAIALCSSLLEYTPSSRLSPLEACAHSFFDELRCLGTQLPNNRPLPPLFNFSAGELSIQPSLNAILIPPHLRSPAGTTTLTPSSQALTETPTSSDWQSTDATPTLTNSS

With `COc1c(NC(=O)Nc2ccc(Oc3ccnc(N(C)C)n3)c3ccccc23)cc(C(C)(C)C)cc1P(C)(C)=O` [15(ak), 1-(5-(tert-butyl)-3-(dimethylphosphoryl)-2-methoxyphenyl)-3-(4-((2-(dimethylamino)-pyrimidin-4-yl)oxy)naphthalen-1-yl)urea], the half-inhibitory concentration (IC50) in assay [1] is 38 nM; in assay [2] it was above 1780 nM; in assay [3], above 1780 nM; in assay [4], above 17800 nM; in assay [5] (Homo sapiens, PBMC), 26 nM.
As to `COc1c(CNS(C)(=O)=O)cc(C(C)(C)C)cc1NC(=O)Nc1ccc(Oc2ccnc(Nc3ccccc3)c2)c2ccccc12` [15(aq), N-(5-(tert-butyl)-2-methoxy-3-(3-(4-((2-(phenylamino)pyridin-4-yl)oxy)naphthalen-1-yl)ureido)benzyl)methanesulfonamide], the IC50 in assay [2] is 160 nM; in assay [3] it was 1520 nM; in assay [4], 3290 nM; in assay [5] (Homo sapiens, PBMC) it was 4.4 nM.
`COc1c(NC(=O)Nc2ccc(Oc3ccnc(Nc4ccccc4)n3)c3ccccc23)cc(C(C)(C)C)cc1P(C)(C)=O` [15(b), 1-(5-(tert-butyl)-3-(dimethylphosphoryl)-2-methoxyphenyl)-3-(4-((2-(phenylamino)-pyrimidin-4-yl)oxy)naphthalen-1-yl)urea]: the IC50 in assay [1] stood at 59 nM; in assay [2], 14 nM; in assay [3] it was 273 nM; in assay [4] it was 785 nM; in assay [5] (Homo sapiens, PBMC) it was 4.5 nM.
In the case of `COc1c(NC(=O)Nc2ccc(Oc3ccnc(Nc4ccccc4)n3)c3ccccc23)cc(C(C)(C)C)cc1OCP(C)(C)=O` [15(d), 1-(5-(tert-butyl)-3-((dimethylphosphoryl)methoxy)-2-methoxyphenyl)-3-(4-((2-(phenylamino)pyrimidin-4-yl)oxy)naphthalen-1-yl)urea], the IC50 is 61 nM in assay [2]; 477 nM in assay [3]; 919 nM in assay [4]; 6.2 nM in assay [5] (Homo sapiens, PBMC). In addition, the “% β-catenin induction” value was found to be 11.0% in assay [6] (test compound 1 μg/mL), 92.0% in assay [6] (test compound 5 μg/mL) and 31.0% in assay [6] (test compound 10 μg/mL).
Take `COc1cccc(Nc2nccc(Oc3ccc(NC(=O)Nc4cc(C(C)(C)C)cc(P(C)(C)=O)c4OC)c4ccccc34)n2)c1` [15(g), 1-(5-(tert-butyl)-3-(dimethylphosphoryl)-2-methoxyphenyl)-3-(4-((2-((3-methoxy-phenyl)amino)pyrimidin-4-yl)oxy)naphthalen-1-yl)urea]: the results for the IC50 in assay [4] and in assay [5] were 757 nM and 1.9 nM, respectively. For the same compound, the “% β-catenin induction” value in assay [6] (test compound 1 μg/mL) turned out to be 15.0%; in assay [6] (test compound 5 μg/mL) it was 94.0%; in assay [6] (test compound 10 μg/mL) it was 94.0%.
As to `COc1c(NC(=O)Nc2ccc(Oc3ccnc(Nc4ccccc4)c3)c3ccccc23)cc(C(C)(C)C)cc1S(C)(=O)=O` [15(m), 1-(5-(tert-butyl)-2-methoxy-3-(methylsulfonyl)phenyl)-3-(4-((2-(phenylamino)pyridin-4-yl)oxy)naphthalen-1-yl)urea], the IC50 was 747 nM in assay [1]; above 16400 nM in assay [4]; 16 nM in assay [5] (Homo sapiens, PBMC). Further, the “% β-catenin induction” value is reported as −3.0% in assay [6] (test compound 1 μg/mL), 5.0% in assay [6] (test compound 5 μg/mL) and 5.0% in assay [6] (test compound 10 μg/mL).
Turning to `COc1cc(Nc2cc(Oc3ccc(NC(=O)Nc4cc(C(C)(C)C)cc(CC(N)=O)c4OC)c4ccccc34)ccn2)cc(C(=O)NCC(CO)(CO)CO)c1` [38(al), 3-((4-((4-(3-(3-(2-Amino-2-oxoethyl)-5-(tert-butyl)-2-methoxyphenyl)ureido)naphthalen-1-yl)oxy)pyridin-2-yl)amino)-N-(3-hydroxy-2,2-bis(hydroxymethyl)propyl)-5-methoxybenzamide], the IC50 is 44 nM in assay [1]; 1970 nM in assay [4]; 7.2 nM in assay [5] (Homo sapiens, PBMC).
On to `COc1cc(Nc2cc(Oc3ccc(NC(=O)Nc4cc(C(C)(C)C)cc([S+](C)[O-])c4OC)c4ccccc34)ccn2)ccc1C(=O)O` (stereo not shown) [79(g), 4-((4-((4-(3-(5-(tert-Butyl)-2-methoxy-3-(methylsulfinyl)phenyl)ureido)naphthalen-1-yl)oxy)pyridin-2-yl)amino)-2-methoxybenzoic acid], for which the IC50 in assay [2] turned out to be 17 nM; in assay [3], 5 nM; in assay [5] (Homo sapiens, PBMC), 5.3 nM.
Regarding `COc1cc(Nc2cc(Oc3ccc(NC(=O)Nc4cc(C(C)(C)C)cc(P(C)(C)=O)c4OC)c4ccccc34)ccn2)cc(S(=O)(=O)N(C)CCN2CCN(C)CC2)c1` [79(m), 3-((4-((4-(3-(5-(tert-Butyl)-3-(dimethylphosphoryl)-2-methoxyphenyl)ureido)naphthalen-1-yl)oxy)pyridin-2-yl)amino)-5-methoxy-N-methyl-N-(2-(4-methylpiperazin-1-yl)ethyl)benzene sulfonamide], the IC50 in assay [1] came out at 6 nM; in assay [2], 25 nM; in assay [3], 7 nM; in assay [5] (Homo sapiens, PBMC), 1.8 nM.
Regarding `COCCOCCOCCNC(=O)c1cc(C(C)(C)C)cc(NC(=O)Nc2ccc(Oc3ccnc(Nc4cc(OC)cc(OCCOCCOCCOC)c4)n3)c3ccccc23)c1OC` [Example 7, 5-(tert-Butyl)-2-methoxy-3-(3-(4-((2-((3-methoxy-5-(2-(2-(2-methoxyethoxy)ethoxy)ethoxy)-phenyl)amino)pyrimidin-4-yl)oxy)naphthalen-1-yl)ureido)-N-(2-(2-(2-methoxyethoxy)ethoxy)-ethyl)benzamide], the IC50 was determined as 108 nM in assay [1]; 57 nM in assay [3]; 1070 nM in assay [4]; 4.6 nM in assay [5] (Homo sapiens, PBMC).
For the compound `COc1cc(Nc2cc(Oc3ccc(NC(=O)Nc4cc(C(C)(C)C)cc(OCC(CO)(CO)CO)c4OC)c4ccccc34)ccn2)cc(C(N)=O)c1` [Example 67, 3-((4-((4-(3-(5-(tert-Butyl)-3-(3-hydroxy-2,2-bis(hydroxymethyl)propoxy)-2-methoxyphenyl)ureido)naphthalen-1-yl)oxy)pyridin-24)amino)-5-methoxybenzamide], the IC50 in assay [1] was found to be 284 nM; in assay [4], 4260 nM; in assay [5] (Homo sapiens, PBMC), 5.6 nM.

The record behind these values is US9890185B2, “Urea derivatives useful as kinase inhibitors” (Respivert Limited, priority 2013, dated 2018).
